Experimental data reported in patent publication US12291515B2, “Pyrrolidine derivative and use thereof” (Rushi Biotech (Hangzhou) Co., Ltd, priority 2021, dated 2025).
pIC50: −log10 of the molar value.

Assays:
Format in all cases: cell-based
[1] = test system: Human hepatoma cell HepG2; test: CCK-8 cell proliferation assay, HepG2; conditions: HepG2 cells, CCK-8, 24 hrs with drug, OD 450 nm
Protocol: (§1) The effect of samples on the proliferation of human tumor cells in vitro was determined by CCK-8 cell proliferation assay.
(§2) The cells were assayed through a method including the following steps:
(§3) 1) The cells were digested, counted, and prepared into a cell suspension in a corresponding culture medium (Table 1) (5×10^4 cells/ml for CFPAC-1 and RPMI 8226, and 3.5×10^4 cells/ml for rest cells). The cell suspension was added to each well of a 96-well plate in 100 μl well.
(§4) 2) Then the 96-well plate was incubated for 24 hrs in an incubator at 37° C. and 5% CO2.
(§5) 3) The drug was diluted with the culture medium to the required working concentration. 100 μl of the corresponding drug containing medium was added to each well. A negative control group (added with drug-free culture medium) was also set.
(§6) 4) Then the 96-well plate was incubated for 24 hrs in an incubator at 37° C. and 5% CO2.
(§7) 5) The 96-well plate was stained with CCK-8, and The OD value was determined at λ=450 nm.
(§8) a) 10 μl of CCK-8 was added to each well, and incubated in the incubator for another 2-3 hrs.
(§9) b) The content was mixed uniformly by shaking gently on a shaker for 10 min, and the bubbles in the 96-well plate were removed.
(§10) 6) The inhibition rate in each group was calculated.

[2] = test system: Human lung adenocarcinoma cell A549; test: CCK-8 cell proliferation assay, A549; conditions: A549 cells, CCK-8, 24 hrs with drug, OD 450 nm
Protocol: as §1, §2, §3, §4, §5, §6, §7, §8, §9, §10

[3] = test system: Human colon cancer cell HCT-116; test: CCK-8 cell proliferation assay, HCT116; conditions: HCT116 cells, CCK-8, 24 hrs with drug, OD 450 nm
Protocol: as §1, §2, §3, §4, §5, §6, §7, §8, §9, §10

[4] = test system: Human gastric cancer cell MKN45; test: CCK-8 cell proliferation assay, MKN-45; conditions: MKN-45 cells, CCK-8, 24 hrs with drug, OD 450 nm
Protocol: as §1, §2, §3, §4, §5, §6, §7, §8, §9, §10

[5] = test system: Human pancreatic cancer cell CFPAC-1; test: CCK-8 cell proliferation assay, CFPAC-1; conditions: CFPAC-1 cells, CCK-8, 24 hrs with drug, OD 450 nm
Protocol: as §1, §2, §3, §4, §5, §6, §7, §8, §9, §10

[6] = test system: Human esophageal cancer cell TE-1; test: CCK-8 cell proliferation assay, TE-1; conditions: TE-1 cells, CCK-8, 24 hrs with drug, OD 450 nm
Protocol: as §1, §2, §3, §4, §5, §6, §7, §8, §9, §10

[7] = test system: Human multiple myeloma cell RPMI 8226; test: CCK-8 cell proliferation assay, RPMI8226; conditions: RPMI8226 cells, CCK-8, 24 hrs with drug, OD 450 nm
Protocol: as §1, §2, §3, §4, §5, §6, §7, §8, §9, §10

pIC50 [1]	pIC50 [2]	pIC50 [3]	pIC50 [4]	pIC50 [5]	pIC50 [6]	pIC50 [7]	SMILES
7.15	7.17	7.16	7.21	7.31	7.20	7.59	O=C(NCCCCCCC1CCN(C(=O)c2cc3ccccc3o2)C1)Nc1ccncc1 (stereo not drawn) [BSS-TP122, 1-(6-(1-(2-benzofurylformyl)pyrrolidin-3-yl)hexyl)-2-(4-pyridinyl)urea]
7.23	7.20	7.24	7.16	7.23	7.19	7.49	O=C(NCCCCCCC1CCN(C(=O)c2cc3ccccc3[nH]2)C1)Nc1ccnc(F)c1 (stereo not drawn) [BSS-TP123]
7.20	7.25	7.14	7.19	7.38	7.09	7.41	O=C(NCCCCCCC1CCN(C(=O)c2cc3ccccc3o2)C1)Nc1ccnc(F)c1 (stereo not drawn) [BSS-TP124]
7.28	7.34	7.31	7.24	7.33	7.37	7.55	COc1cccc(OC)c1C(=O)N1CCC(CCCCCCNC(=O)Nc2cc(F)nc(F)c2)C1 (stereo not drawn) [BSS-TP125]
7.04	7.26	7.20	7.49	7.28	7.06	7.48	COc1cccc(OC)c1C(=O)N1CCC(CCCCCCCNC(=O)Nc2ccncc2)C1 (stereo not drawn) [BSS-TP126, 1-(7-(1-(2,6-dimethoxybenzoyl)pyrrolidin-3-yl)heptyl)-2-(4-pyridinyl) urea]
6.99	7.12	7.12	6.96	7.24	6.87	7.47	COc1cccc(OC)c1C(=O)N1CCC(CCCCNC(=O)Nc2ccncc2)C1 (stereo not drawn) [BSS-TP127, 1-(4-(1-(2,6-dimethoxybenzoyl)pyrrolidin-3-yl)butyl)-2-(4-pyridinyl) urea]
6.96	7.17	7.01	7.29	7.28	6.91	7.44	O=C(NCCCCCCCC1CCN(C(=O)c2ccco2)C1)Nc1ccncc1 (stereo not drawn) [BSS-TP128, 1-(7-(1-(furoyl)pyrrolidin-3-yl)heptyl)-2-(4-pyridinyl)urea]
7.03	7.14	7.14	7.31	7.55	7.02	7.64	O=C(NCCCCCCCC1CCN(C(=O)c2ccc[nH]2)C1)Nc1ccncc1 (stereo not drawn) [BSS-TP129, 1-(7-(1-(2-pyrrolylformyl)pyrrolidin-3-yl)heptyl)-2-(4-pyridinyl)urea]
7.26	7.25	7.34	7.14	7.37	7.21	7.42	COc1cccc(OC)c1C(=O)N1CCC(CCCCCCCNC(=O)Nc2ccnc(F)c2)C1 (stereo not drawn) [BSS-TP130]
7.17	7.37	7.12	7.33	7.44	7.16	7.54	O=C(NCCCCCCCC1CCN(C(=O)c2ccccc2)C1)Nc1ccncc1 (stereo not drawn) [BSS-TP131]
7.21	7.29	7.19	7.41	7.52	7.11	7.47	O=C(NCCCCCCCC1CCN(C(=O)c2ccccc2)C1)Nc1ccnc(F)c1 (stereo not drawn) [BSS-TP132]
7.00	7.43	7.04	7.41	7.43	6.95	7.70	O=C(/C=C/c1cccnc1)NCCCCC1CCN(C(=O)c2ccccc2)CC1 [FK866, reference compound]
